Measurements published in patent US20260250318A1, “COMPOSITIONS AND METHODS FOR CROSSING THE BLOOD BRAIN BARRIER” (VOYAGER THERAPEUTICS, INC., priority 2022, published 2026).

How the values were obtained:
[1] = tested on: brains, heart, liver, muscle, and DRG of the NHPs; assay: Maturation of TTM-001 and TTM-002 capsids, NGS enrichment in NHP tissues; assay type: in vivo; settings: relative to AAV9 control
In short: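 Variants carry mutations within and flanking the loop IV peptide insert: positions 450–466 were triplet-randomized, while positions 449–466 received low-frequency point mutations. The combined pool went into two NHPs, and each peptide was scored by NGS enrichment ratio against AAV9.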

brain = assay: Matured TTM-001 and TTM-002 variants, NGS enrichment in mouse brain; assay type: in vivo, mice; settings: relative to AAV9 control
[2] = NGS fold-enrichment of RNA, NHP brain
[3] = NGS fold-enrichment, NHP liver DNA
[4] = NGS fold-enrichment, NHP liver RNA
[5] = NGS fold-enrichment, NHP muscle
[6] = NGS fold-enrichment, mouse brain
[7] = NGS fold-enrichment, DRG of NHPs
[8] = NGS fold-enrichment, RNA, brain of NHPs
[9] = NGS fold-enrichment, heart of NHPs
[10] = NGS fold-enrichment, liver DNA of NHPs
[11] = NGS fold-enrichment, liver RNA of NHPs
[12] = NGS fold-enrichment, muscle of NHPs
[13] = NGS fold-enrichment, brain of mice

| Sequence | Fold Enrichment relative to AAV9, Brain (NHP) [1, 2] [fold] | Fold Enrichment relative to AAV9, DRG (NHP) ([1]; NGS fold-enrichment, NHP DRG) [fold] | Fold Enrichment relative to AAV9, Heart (NHP) ([1]; NGS fold-enrichment, NHP heart) [fold] | Fold Enrichment relative to AAV9, Liver DNA (NHP) [1, 3] [fold] | Fold Enrichment relative to AAV9, Liver RNA (NHP) [1, 4] [fold] | Fold Enrichment relative to AAV9, Muscle (NHP) [1, 5] [fold] | Fold Enrichment relative to AAV9, Brain (Mouse) (brain; [6]) [fold] | Fold Enrichment relative to AAV9, DRG (NHP) [1, 7] [fold] | Fold Enrichment relative to AAV9, Brain (NHP) [1, 8] [fold] | Fold Enrichment relative to AAV9, Heart (NHP) [1, 9] [fold] | Fold Enrichment relative to AAV9, Liver DNA (NHP) [1, 10] [fold] | Fold Enrichment relative to AAV9, Liver RNA (NHP) [1, 11] [fold] | Fold Enrichment relative to AAV9, Muscle (NHP) [1, 12] [fold] | Fold Enrichment relative to AAV9, Brain (Mouse) (brain; [13]) [fold] | further results |
| --- | --- | --- | --- | --- | --- | --- | --- | --- | --- | --- | --- | --- | --- | --- | --- |
| KTCNASGSPHSKAQNQQT |  |  |  |  |  |  |  |  |  |  |  |  |  |  | Fold Enrichment relative to AAV9, Brain (NHP) ([1]; NGS fold-enrichment of matured AAV capsid variants, NHP brain, RNA): 52.998 fold; Fold Enrichment relative to AAV9, DRG (NHP) ([1]; NHP DRG): 0.000 fold; Fold Enrichment relative to AAV9, Heart (NHP) ([1]; NHP heart): 0.011 fold; Fold Enrichment relative to AAV9, Liver DNA (NHP) ([1]; NHP liver, DNA): 0.141 fold; Fold Enrichment relative to AAV9, Liver RNA (NHP) ([1]; NHP liver, RNA): 0.897 fold; Fold Enrichment relative to AAV9, Muscle (NHP) ([1]; NHP muscle): 0.000 fold; Fold Enrichment relative to AAV9, Brain (Mouse) (brain; mouse brain): 67.934 fold |
| KTCNGHDSPHKSGRNQQT | 94.616 | 0.000 | 0.025 | 0.128 | 0.000 | 0.000 | 12.496 |  |  |  |  |  |  |  |  |
| KTCNKSGSPHSKAQNQQT | 83.992 | 0.000 | 0.000 | 0.000 | 0.283 | 0.165 | 119.496 | 0.000 | 83.992 | 0.000 | 0.000 | 0.283 | 0.165 | 119.496 |  |
| KTDAGHDSPHKSGQNQQT | 88.924 | 0.000 | 0.013 | 0.070 | 1.076 | 0.000 | 18.107 |  |  |  |  |  |  |  |  |
| KTDKGSGSPHSKAQNQQT | 94.572 | 0.000 | 0.037 | 0.367 | 0.951 | 0.000 | 47.888 |  |  |  |  |  |  |  |  |
| KTDKMSGSPHSKAQNQQT |  |  |  |  |  |  |  | 0.000 | 68.167 | 0.000 | 0.205 | 0.017 | 0.000 | 88.234 |  |
| KTDKNSGSPHSKAQNQQT |  |  |  |  |  |  |  | 0.000 | 70.964 | 0.000 | 0.123 | 0.070 | 0.000 | 62.932 |  |
| KTDKSSGSPHSKAQNQQT | 79.470 | 0.055 | 0.012 | 0.367 | 1.437 | 0.000 | 141.351 | 0.055 | 79.470 | 0.012 | 0.367 | 1.437 | 0.000 | 141.351 |  |
| KTDKTSGSPHSKAQNQQT | 81.430 | 0.000 | 0.000 | 0.291 | 1.362 | 0.000 | 169.515 | 0.000 | 81.430 | 0.000 | 0.291 | 1.362 | 0.000 | 169.515 |  |
| KTDKVSGSPHSKAQNQQT |  |  |  |  |  |  |  | 0.000 | 60.935 | 0.015 | 0.128 | 0.765 | 0.000 | 146.657 |  |
